Data: patent US20250041312A1, “METHODS OF ADMINISTERING A MODULATOR OF HEMOGLOBIN” (Global Blood Therapeutics, Inc., priority 2021, published 2025)
Like-named read-outs stand apart in the source and are kept apart here.

Assay: SAD study in healthy volunteers: PK in plasma, whole blood, red blood cells
Type: in vivo, human
Conditions: human; for half-life: read-out: t1/2 (converted); for Tmax: median
Procedure: To evaluate the safety and tolerability of single ascending doses of Compound I, 48 healthy volunteers (42 in the fasted state and 6 in the fed state) aged 18 to 55 years old were administered single ascending doses (50 mg to 2200 mg) of Compound I, while 16 healthy volunteers (14 in the fasted state and 2 in the fed state) aged 18 to 55 years old were administered placebo in a double blind, randomized, sequential manner.
Whole blood pharmacokinetic (PK) parameters, using actual sample collection times, and hemoglobin occupancy after single ascending dose are shown in Table 5 (containing data from both healthy volunteers and SCD subjects) and Table 6 (containing data from only healthy volunteer subjects).

## O=Cc1c(O)cccc1OC[C@@H]1COCCN1C(=O)c1cccnc1CCO [Compound I, (S)-2-hydroxy-6-((4-(2-(2-hydroxyethyl)nicotinoyl)morpholin-3-yl)methoxy)benzaldehyde]
Whole blood, 2200 mg, HV single 2200 mg, mean
  Cmax: 390 µg/mL
Whole blood, 2200 mg, HV single 2200 mg, whole blood, mean, blood collected up to day 7, read-out: AUC0-t
  AUC(0-t): 48000 µg·h/mL
Whole blood, po, 50 mg, HV single oral 50 mg (Cohort 1), geometric mean
  Cmax: 8 µg/mL
Whole blood, po, 50 mg, HV single oral 50 mg (Cohort 1), whole blood, geometric mean, read-out: AUClast
  AUC(0-t): 6810 µg·h/mL
Whole blood, po, 50 mg, HV single oral 50 mg (Cohort 1), whole blood, geometric mean
  half-life: 683 h
Whole blood, po, 100 mg, HV single oral 100 mg (Cohort 2), geometric mean
  Cmax: 17.3 µg/mL
Whole blood, po, 100 mg, HV single oral 100 mg (Cohort 2), whole blood, geometric mean, read-out: AUClast
  AUC(0-t): 14300 µg·h/mL
Whole blood, po, 100 mg, HV single oral 100 mg (Cohort 2), whole blood, geometric mean
  half-life: 698 h
Whole blood, po, 200 mg, HV single oral 200 mg (Cohort 3), geometric mean
  Cmax: 34.2 µg/mL
Whole blood, po, 200 mg, HV single oral 200 mg (Cohort 3), whole blood, geometric mean, read-out: AUClast
  AUC(0-t): 28600 µg·h/mL
Whole blood, po, 200 mg, HV single oral 200 mg (Cohort 3), whole blood, geometric mean
  half-life: 677 h
Whole blood, po, 400 mg, HV single oral 400 mg (Cohort 5), geometric mean
  Cmax: 87.6 µg/mL
Whole blood, po, 400 mg, HV single oral 400 mg (Cohort 5), whole blood, geometric mean, read-out: AUClast
  AUC(0-t): 62200 µg·h/mL
Whole blood, po, 400 mg, HV single oral 400 mg (Cohort 5), whole blood, geometric mean
  half-life: 609 h
Whole blood, po, 800 mg, HV single oral 800 mg (Cohort 6), geometric mean
  Cmax: 149 µg/mL
Whole blood, po, 800 mg, HV single oral 800 mg (Cohort 6), whole blood, geometric mean, read-out: AUClast
  AUC(0-t): 103000 µg·h/mL
Whole blood, po, 800 mg, HV single oral 800 mg (Cohort 6), whole blood, geometric mean
  half-life: 625 h
Whole blood, po, 1400 mg, HV single oral 1400 mg (Cohort 7), geometric mean
  Cmax: 230 µg/mL
Whole blood, po, 1400 mg, HV single oral 1400 mg (Cohort 7), whole blood, geometric mean, read-out: AUClast
  AUC(0-t): 192000 µg·h/mL
Whole blood, po, 1400 mg, HV single oral 1400 mg (Cohort 7), whole blood, geometric mean
  half-life: 656 h
Whole blood, po, 2200 mg, HV single oral 2200 mg (Cohort 8), geometric mean
  Cmax: 387 µg/mL
Whole blood, po, 2200 mg, HV single oral 2200 mg (Cohort 8), whole blood, geometric mean, read-out: AUClast
  AUC(0-t): 264000 µg·h/mL
Whole blood, po, 2200 mg, HV single oral 2200 mg (Cohort 8), whole blood, geometric mean
  half-life: 590 h
HV single 50 mg, whole blood
  Tmax: 24 h
HV single 100 mg, whole blood
  Tmax: 24 h
HV single 200 mg, whole blood
  Tmax: 8 h
HV single 400 mg, whole blood
  Tmax: 8 h
HV single 800 mg, whole blood
  Tmax: 16 h
HV single 1400 mg, whole blood
  Tmax: 12 h
HV single 2200 mg, whole blood
  Tmax: 24 h
HV single oral 50 mg (Cohort 1), plasma, geometric mean
  AUC(0-inf): 34.2 µg·h/mL
HV single oral 50 mg (Cohort 1), plasma
  Tmax: 0.75 h
HV single oral 50 mg (Cohort 1), red blood cells (calculated conc.), geometric mean
  AUC(0-inf): 18100 µg·h/mL
HV single oral 50 mg (Cohort 1), red blood cells (conc. calculated from blood, plasma, hematocrit)
  Tmax: 24 h
HV single oral 50 mg (Cohort 1), whole blood, geometric mean
  AUC(0-inf): 7490 µg·h/mL
HV single oral 50 mg (Cohort 1), whole blood
  Tmax: 24 h
HV single oral 100 mg (Cohort 2), plasma, geometric mean
  AUC(0-inf): 74.5 µg·h/mL
HV single oral 100 mg (Cohort 2), plasma
  Tmax: 1 h
HV single oral 100 mg (Cohort 2), red blood cells (calculated conc.), geometric mean
  AUC(0-inf): 38500 µg·h/mL
HV single oral 100 mg (Cohort 2), red blood cells (calculated conc.)
  Tmax: 24 h
HV single oral 100 mg (Cohort 2), whole blood, geometric mean
  AUC(0-inf): 15900 µg·h/mL
HV single oral 100 mg (Cohort 2), whole blood
  Tmax: 24 h
HV single oral 200 mg (Cohort 3), plasma, geometric mean
  AUC(0-inf): 152 µg·h/mL
HV single oral 200 mg (Cohort 3), plasma
  Tmax: 1 h
HV single oral 200 mg (Cohort 3), red blood cells (calculated conc.), geometric mean
  AUC(0-inf): 71200 µg·h/mL
HV single oral 200 mg (Cohort 3), red blood cells (calculated conc.)
  Tmax: 8 h
HV single oral 200 mg (Cohort 3), whole blood, geometric mean
  AUC(0-inf): 31600 µg·h/mL
HV single oral 200 mg (Cohort 3), whole blood
  Tmax: 8 h
HV single oral 400 mg (Cohort 5), plasma, geometric mean
  AUC(0-inf): 361 µg·h/mL
HV single oral 400 mg (Cohort 5), plasma
  Tmax: 1 h
HV single oral 400 mg (Cohort 5), red blood cells (calculated conc.), geometric mean
  AUC(0-inf): 163000 µg·h/mL
HV single oral 400 mg (Cohort 5), red blood cells (calculated conc.)
  Tmax: 10 h
HV single oral 400 mg (Cohort 5), whole blood, geometric mean
  AUC(0-inf): 67200 µg·h/mL
HV single oral 400 mg (Cohort 5), whole blood
  Tmax: 8 h
HV single oral 800 mg (Cohort 6), plasma, geometric mean
  AUC(0-inf): 623 µg·h/mL
HV single oral 800 mg (Cohort 6), plasma
  Tmax: 2.5 h
HV single oral 800 mg (Cohort 6), red blood cells (calculated conc.), geometric mean
  AUC(0-inf): 266000 µg·h/mL
HV single oral 800 mg (Cohort 6), red blood cells (calculated conc.)
  Tmax: 36 h
HV single oral 800 mg (Cohort 6), whole blood, geometric mean
  AUC(0-inf): 111000 µg·h/mL
HV single oral 800 mg (Cohort 6), whole blood
  Tmax: 16 h
HV single oral 1400 mg (Cohort 7), plasma, geometric mean
  AUC(0-inf): 1080 µg·h/mL
HV single oral 1400 mg (Cohort 7), plasma
  Tmax: 2.5 h
HV single oral 1400 mg (Cohort 7), red blood cells (calculated conc.), geometric mean
  AUC(0-inf): 499000 µg·h/mL
HV single oral 1400 mg (Cohort 7), red blood cells (calculated conc.)
  Tmax: 30 h
HV single oral 1400 mg (Cohort 7), whole blood, geometric mean
  AUC(0-inf): 210000 µg·h/mL
HV single oral 1400 mg (Cohort 7), whole blood
  Tmax: 12 h
HV single oral 2200 mg (Cohort 8), plasma, geometric mean
  AUC(0-inf): 1430 µg·h/mL
HV single oral 2200 mg (Cohort 8), plasma
  Tmax: 3.5 h
HV single oral 2200 mg (Cohort 8), red blood cells (calculated conc.), geometric mean
  AUC(0-inf): 670000 µg·h/mL
HV single oral 2200 mg (Cohort 8), red blood cells (calculated conc.)
  Tmax: 24 h
HV single oral 2200 mg (Cohort 8), whole blood, geometric mean
  AUC(0-inf): 282000 µg·h/mL
HV single oral 2200 mg (Cohort 8), whole blood
  Tmax: 24 h
Healthy volunteers n=6, single 100 mg, plasma
  Tmax: 1 h
